Data reported in patent US12194033B2, “Glycine receptor modulators and methods of use” (University of Pittsburgh—Of the Commonwealth System of …, priority 2017, dated 2025).

Tests used:
[1] = test system: TA100 strain Salmonella typhimurium; assay: In vitro Ames test; format: cell-based; conditions: S9 rat liver extract
Protocol: Toxicity was evaluated using in vitro Ames test and in vivo immune responses flow cytometry. Compound 1 (MJPY1) at each concentration was tested in three 48-well plates using the TA100 strain Salmonella typhimurium and S9 rat liver extract for base-pair substitution mutations. Error bars represent SEM. Significance (p<0.05) was evaluated compared to the control (0 μM) using one-way ANOVA with the Bonferroni post-hoc test. FIGS. 15A and 15B show flow cytometry evaluation of common inflammatory markers in the liver and spleen of mice in response to compound 1 (MJPY1) treatment. Mice received either 2 mg/kg of MJPY1 (right) or vehicle (left) ˜16 hours prior to sacrifice and tissue collection. Significant differences between the treatment and control were observed only for decreased CD11b+ in the liver of mice treated with MJPY1 (p<0.001). […] Results were analyzed by one-way ANOVA with Bonferroni post-hoc test.

C57Bl/6J mice = assay: Hargreaves test in C57Bl/6J mice; format: in vivo
Protocol: In vivo mouse behavior tests validated the analgesic action of the representative compounds in response to inflammation. Responses of C57Bl/6J mice to the Hargreaves test (Pain, 32:77-88, 1988) were assessed pre- and post-application of compound 1 alone (white circles, application time=0 hours). […] Error bars designate the standard error of the mean (n≥4).

NOR = NOR (Homo sapiens, UniProt P41146); assay: Radioligand binding assay, off-target profiling; conditions: 10 M MJPY1, mean, n = 4
KOR = KOR (Homo sapiens, UniProt P41145); assay: Radioligand binding assay, off-target profiling; conditions: 10 M MJPY1, mean, n = 4
Chain of KOR (P41145 whole entry): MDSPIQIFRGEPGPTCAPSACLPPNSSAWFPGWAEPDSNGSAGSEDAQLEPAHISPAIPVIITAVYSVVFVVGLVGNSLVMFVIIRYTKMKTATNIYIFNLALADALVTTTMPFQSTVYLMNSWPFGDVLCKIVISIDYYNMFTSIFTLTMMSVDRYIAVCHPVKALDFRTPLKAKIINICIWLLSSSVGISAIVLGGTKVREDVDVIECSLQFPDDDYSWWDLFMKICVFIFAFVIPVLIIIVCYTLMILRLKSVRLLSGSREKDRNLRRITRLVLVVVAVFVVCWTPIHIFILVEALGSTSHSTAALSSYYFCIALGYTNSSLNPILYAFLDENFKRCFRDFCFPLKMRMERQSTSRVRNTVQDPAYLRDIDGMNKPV

Chain of NOR (P41146 whole entry): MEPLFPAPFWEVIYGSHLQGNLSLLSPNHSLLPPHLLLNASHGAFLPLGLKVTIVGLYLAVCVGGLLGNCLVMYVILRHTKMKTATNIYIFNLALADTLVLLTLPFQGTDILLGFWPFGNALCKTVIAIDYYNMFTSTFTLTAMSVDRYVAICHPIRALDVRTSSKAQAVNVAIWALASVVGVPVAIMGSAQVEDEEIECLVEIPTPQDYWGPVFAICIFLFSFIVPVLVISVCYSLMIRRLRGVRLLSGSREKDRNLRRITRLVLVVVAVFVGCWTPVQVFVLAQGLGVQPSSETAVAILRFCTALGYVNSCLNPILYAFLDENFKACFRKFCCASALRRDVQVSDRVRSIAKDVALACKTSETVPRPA

## NC(=O)c1cccc(CNC(=O)c2ccc3c4c(cccc24)CC3)c1 [compound 1, N-[(3-carbamoylphenyl)-methyl]-1,2-dihydroacenaphthylene-5-carboxamide]
[1]
  mutagenic activity (base-pair substitution mutations): little mutagenic activity
C57Bl/6J mice; maximum CFA-induced hyperalgesic conditions (24 hours post CFA)
  response time for paw withdrawal: increase in response time
C57Bl/6J mice; normal nociceptive conditions
  response time for paw withdrawal: no significant effect
NOR
  % Inhibition NOR: −16.8%
KOR
  % Inhibition KOR: 5.0%
